Source: patent publication US10834951B2, “Organic compounds” (GIVAUDAN SA, priority 2013, dated 2020)

Key:
[1] = Tasting by a professional panel in diluted low salt soy sauce
Procedure: Kikkoman low salt soy sauce was diluted 100 times. Part of the solution was kept as the reference. To another part was dosed a compound of formula (I). The solutions were tasted by a professional panel.
5.a: 0.1 ppm of 5-oxo-1-stearoylpyrrolidine-2-carboxylic acid (C18:0 pyro-Glu) was added to tap water containing 1% salt reduced kikoman soy sauce (9% salt).
5.b: 0.5 ppm of 5-oxo-1-palmitoylpyrrolidine-2-carboxylic acid (C16:0 pyro-Glu) was added to salt reduced kikoman soy sauce (9% salt).

[2] = Tasting in chicken bouillon base (0.7% salt, 0.5% fat)
Procedure: A compound of formula (I) in a concentration as indicated below was added to a chicken bouillon base (0.7% salt, 0.5% fat). The resultant composition was compared with a chicken bouillon without a compound of formula (I).

[3] = Tasting in fried potato snack product with cheese seasoning (35% fat)
Procedure: A snack product consisting of a fried potato base, containing 35% fat and flavored with cheese seasoning containing salt, MSG, dairy, organic acids, sugars, and a flavour formulation. A compound of formula (I) was added to the snack product at the indicated levels and the tasting results are reported as follows (compared with a snack product without a compound of formula (I)): […]

[4] = Expert tasting in mango flavoured still beverage
Procedure: In a Mango flavoured still beverage, sweetened with 8% sucrose & containing 0.1% citric acid and 1% clear mango juice flavoured with proprietary Mango flavour @ 0.05%, C16:0 pyro-Glu and C18:2-Theanine were added, as such (separate) and in combination.
All samples were evaluated by expert tasters. Tasters were asked to describe the samples focusing on authentic taste, juicy mouthfeel, enhancement, richness, juiciness, long lastingness, salivation, sweetness.
*Base: water, 8% sucrose, 0.1% citric acid, 1% clear mango juice (i.e. very low juice concentration), flavoured with Mango flavor (dosed at 0.05%).

[5] = Expert tasting in orange flavoured Tang powdered soft drink
Procedure: In an orange flavoured Tang powdered soft drink (market product) sweetened with sucrose plus high intensity sweetener and containing citric acid, C18:0 pyro-Glu, and C18:2-Theanine were tested.
All samples were evaluated by expert tasters. Tasters were asked to describe the samples focusing on authentic taste, mouthfeel & body, enhancement, richness, juiciness, long lastingness, salivation, sweetness, masking off notes of high intensity sweetener.

[6] = Tasting in brewed green tea against reference
Procedure: A green tea was brewed by taking 0.6 g of tea/100 ml of water. The water was heated to 80° C. and the tea leaves were left in the solution for 5 minutes. The tea solution was allowed to cool down to room temperature. Part of the solution was kept as a reference. To another part was added a compound of formula (I) in a concentration as indicated below. The solutions were tasted against the reference (i.e. a green tea without a compound of formula (I)).

[7] = 0.5 ppm in chicken bouillon base

Compound	taste description versus reference ([1]; 0.5 ppm in salt reduced kikoman soy sauce (9% salt))	taste description versus chicken bouillon without compound [2, 7]	taste description versus snack product without compound ([3]; 0.5 ppm in cheese flavoured fried potato snack)	taste description by expert tasters ([4]; 0.1 ppm in mango still beverage base)	taste description versus reference without the compound ([1]; 0.1 ppm in tap water containing 1% salt reduced kikoman soy sauce (9% salt))	taste description versus chicken bouillon without compound ([2]; 0.2 ppm in chicken bouillon base)	taste description versus snack product without compound ([3]; 1 ppm in cheese flavoured fried potato snack)	taste description by expert tasters ([5]; 0.1 ppm in orange flavoured Tang base)	taste description versus green tea reference ([6]; 0.2 ppm in green tea)	taste description versus snack product without compound ([3]; 0.1 ppm in cheese flavoured fried potato snack)	taste description by expert tasters ([5]; 1 ppm in orange flavoured Tang base)	taste description by expert tasters ([4]; 1 ppm in mango still beverage base)	taste description versus green tea reference ([6]; 0.02 ppm in green tea)	taste description versus green tea reference ([6]; 1 ppb in green tea)	taste description versus green tea reference ([6]; 10 ppb in green tea)
CCCCCCCCCCCCCCCC(=O)N1C(=O)CCC1C(=O)O (stereo not shown) [C16:0 pyro-Glu, 5-oxo-1-palmitoylpyrrolidine-2-carboxylic acid]	a stronger saltiness and to be more lingering, more umami	Nice strong salty, umami lingering body, better meat profile	more rich, more cheesy, more umami. More salty	very juicy and long lasting sweet, salivating	–	–	–	–	–	–	–	–	–	–	–
CCCCCCCCCCCCCCCCCC(=O)N1C(=O)CCC1C(=O)O (stereo not shown) [C18:0 pyro-Glu, 5-oxo-1-stearoylpyrrolidine-2-carboxylic acid]	–	–	–	–	more body and to be more umami, more salty, longer lasting and richer	More umami lingering body, more salty, more rich	more full, more cheesy, longer lasting, more salty	enhanced fruitiness, enhanced mouthfeel. Additionally, the off-notes of the high intensity sweetener were suppressed	more complex and had more mouthfeel	–	–	–	–	–	–
CCCCC/C=C\C/C=C\CCCCCCCC(=O)NC(CCC(=O)NCC)C(=O)O (stereo not shown) [C18:2-Theanine, 5-(ethylamino)-2-[(9Z,12Z)-octadeca-9,12-dienoylamino]-5-oxopentanoic acid]	–	More body and fatty notes, salivating	–	–	–	–	–	–	–	more fatty, more umami, more succulent	enhances sweet juicy orange notes,more body, more mouthfeel. Additionally, the off-notes of the high intensity sweetener were suppressed	fatty skin-like, very juicy, authentic mango, more mouthfeel, long lasting mango taste	better green tea character, was less bitter and had a better mouthfeel	more authentic tea than the reference and to have a nice balance between bitterness and astringency	more astringent, more body and somewhat more bitter umami than the reference
